From ChEMBL document CHEMBL1133952, “Identification of E2F-1/Cyclin A antagonists” (Bioorg Med Chem Lett, 2001)
Residues, ends and D or L forms follow the SMILES beside them. *: point of attachment. Cyclohexanecarbonyl = O=C(C1CCCCC1)*; Cyclopentanecarbonyl = O=C(C1CCCC1)*; Cyclopropanecarbonyl = O=C(C1CC1)*; Isobutyryl = CC(C)C(=O)*; Piv = CC(C)(C)C(=O)*; Propionyl = CCC(=O)*; Bz = O=C(c1ccccc1)*

Experiment: In vitro inhibitory activity against E2F-1/Cyclin A was determined using ELISA assay

Molecule | IC50 [nM]
CC(C)C[C@H](NC(=O)[C@H](CCCCN)NC(=O)[C@H](CCCN=C(N)N)NC(=O)[C@H](CCCCN)NC(=O)C(C)(C)C)C(=O)N[C@@H](Cc1ccccc1)C(=O)NCC(=O)O (Piv-KRKLFG-OH) | 150
H-PAKRKLFG-OH | 100
CCC(=O)N[C@@H](CCCCN)C(=O)N[C@@H](CCCN=C(N)N)C(=O)N[C@@H](CCCCN)C(=O)N[C@@H](CC(C)C)C(=O)N[C@@H](Cc1ccccc1)C(=O)NCC(=O)O (Propionyl-KRKLFG-OH) | 450
CC(=O)N1CCC[C@H]1C(=O)N[C@H](C(=O)N[C@@H](CCCCN)C(=O)N[C@H](CCCN=C(N)N)C(=O)N[C@@H](CCCCN)C(=O)N[C@@H](CC(C)C)C(=O)N[C@@H](Cc1ccccc1)C(=O)NCC(=O)O)C(C)C | 45000
Ac-AKRKLFG-OH | 200
CC(C)C[C@H](NC(=O)[C@H](CCCCN)NC(=O)[C@H](CCCN=C(N)N)NC(=O)[C@H](CCCCN)NC(=O)C1CC1)C(=O)N[C@@H](Cc1ccccc1)C(=O)NCC(=O)O (Cyclopropanecarbonyl-KRKLFG-OH) | 150
CC(C)C[C@H](NC(=O)[C@H](CC(N)=O)NC(=O)[C@H](CCCN=C(N)N)NC(=O)C(CS)NC(=O)[C@H](C)NC(=O)C(N)CO)C(=O)N[C@@H](Cc1ccccc1)C(=O)NCC(=O)O (single isomer, unassigned) | 200
CC(=O)N[C@@H](CCCCN)C(=O)N[C@@H](CC(C)C)C(=O)N[C@@H](Cc1ccccc1)C(=O)NCC(=O)O (Ac-KLFG-OH) | 45000
CC(=O)N1CCC[C@H]1C(=O)N[C@H](C(=O)N[C@@H](CCCCN)C(=O)N[C@@H](CCCN=C(N)N)C(=O)N[C@H](CCCCN)C(=O)N[C@@H](CC(C)C)C(=O)N[C@@H](Cc1ccccc1)C(=O)NCC(=O)O)C(C)C | 5000
CC(C)C[C@H](NC(=O)[C@H](CCCCN)NC(=O)[C@H](CCCN=C(N)N)NC(=O)[C@H](CCCCN)NC(=O)c1ccccc1)C(=O)N[C@@H](Cc1ccccc1)C(=O)NCC(=O)O (Bz-KRKLFG-OH) | 1500
CC(C)C[C@H](NC(=O)[C@H](CCCCN)NC(=O)[C@H](CCCN=C(N)N)NC(=O)[C@H](CCCCN)NC(=O)C(C)C)C(=O)N[C@@H](Cc1ccccc1)C(=O)NCC(=O)O (Isobutyryl-KRKLFG-OH) | 150
CC(C)C[C@H](NC(=O)[C@H](CCCCN)NC(=O)[C@H](CCCN=C(N)N)NC(=O)[C@H](CCCCN)NC(=O)C1CCCCC1)C(=O)N[C@@H](Cc1ccccc1)C(=O)NCC(=O)O (Cyclohexanecarbonyl-KRKLFG-OH) | 450
CC(C)C[C@H](NC(=O)[C@H](CCCCN)NC(=O)[C@H](CCCN=C(N)N)NC(=O)[C@H](CCCCN)NC(=O)C1CCCC1)C(=O)N[C@@H](Cc1ccccc1)C(=O)NCC(=O)O (Cyclopentanecarbonyl-KRKLFG-OH) | 350
CC(=O)N[C@@H](CCCN=C(N)N)C(=O)N[C@@H](CCCCN)C(=O)N[C@@H](CC(C)C)C(=O)N[C@@H](Cc1ccccc1)C(=O)NCC(=O)O | 30000
Ac-KRKLFG-OH | 1000
H-PVKARADL-OH | > 100000
CC(=O)N1CCC[C@H]1C(=O)N[C@H](C(=O)N[C@@H](CCCCN)C(=O)N[C@@H](CCCN=C(N)N)C(=O)N[C@@H](CCCCN)C(=O)N[C@@H](CC(C)C)C(=O)N[C@H](Cc1ccccc1)C(=O)NCC(=O)O)C(C)C | 250
CC(=O)N1CCC[C@H]1C(=O)N[C@H](C(=O)N[C@@H](CCCCN)C(=O)N[C@@H](CCCN=C(N)N)C(=O)N[C@@H](CCCCN)C(=O)N[C@@H](CC(C)C)C(=O)N[C@@H](Cc1ccccc1)C(=O)NCC(=O)O)C(C)C | 100
CC(C)C[C@H](NC(=O)[C@H](CC(=O)O)NC(=O)[C@H](CC(C)C)NC(=O)[C@H](CCCN=C(N)N)NC(=O)[C@H](CCCN=C(N)N)NC(=O)[C@H](CCCCN)NC(=O)[C@@H](NC(=O)[C@@H]1CCCN1)C(C)C)C(=O)O | 100
